In US10533015B1, “Opioid receptor antagonist prodrugs” (Nirsum Laboratories, Inc., priority 2019, dated 2020):
Read-outs that look alike come from different tables or passages of the source.

How the values were obtained:
[1] = cited from earlier work
[2] = target: T1, DOR (Homo sapiens, UniProt P41143); experiment: Opioid receptor binding assay, DOR ([3H]-DADLE); details: MaxDose 10000 nM
T1 construct: expressed in transfected cells
Description: Receptor binding assays were performed to assess the ability of compounds to inhibit binding to radiolabeled ligand.
The stable cell lines were established and prepared cell membrane obtained using these cell lines.
3) Assay Procedure 1) Transfer 1 μl of specified concentration compound to assay plate according to the plate map for nonspecific binding. Transfer 1 μl of DMSO to assay plate according to plate map for total binding. 2) Follow the plate map. Dispense 99 μl of membrane stocks into the plate. 3) Add 100 μl of radio ligand. 4) Seal the plates. Incubate at RT for 1 hour. 5) Soak the Unifilter-96 GF/C filter plates with 50 μl of 0.3% PEI per well for at least 0.5 hour at room temperature. 6) When binding assays are completed, filter the reaction mixture through GF/C plates using Perkin Elmer Filtermate Harvester, and then wash each plate for 4 times with cold wash buffer. 7) Dry the filter plates for 1 hour at 50 degrees. 8) After drying, seal the bottom of the filter plate wells using Perkin Elmer Unifilter-96 backing seal tape. Add 50 μl of Perkin Elmer Microscint 20 cocktail. Seal top of filter plates with Perkin Elmer TopSeal-A sealing film. 9) Count ^3H trapped on filter using Perkin Elmer MicroBeta2 Reader second day. 10) Analyze the data with GraphPad Prism 5. Calculate the “Inhibition [% Control]” using the equation: % Inh=(1-Background subtracted Assay value/Background subtracted HC value)*100. Results

[3] = not given; remark: listed apart in the source
[4] = Plasma stability assay, rat plasma; format: in vitro ADME; details: 10 μM, 37° C.
Outline: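 Rat, dog, cynomolgus monkey and human plasma incubated in duplicate; rat sampled at 0, 15, 120, 480 and 1440 min. Dog, monkey and human used 2 μM compound (final), 1% solvent, 37° C., sampled at 0, 10, 30, 60 and 120 min. HPLC-MS gave % parent remaining.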

[5] = Polymorph screening of solid state drug substances; details: for Dry method and appearance: after stirring 50 °C 72 hours, dried solid; for XRPD results (Dried): dried solid after 50 °C 72 hours; for Visual observation 50° C. / Visual observation RT: target conc. 100 mg/ml
[6] = Plasma stability assay, dog plasma; format: in vitro ADME; details: 2 μM, 37° C.
Description: (§1) Plasma stability determination of the test compounds in rat, dog, cynomolgus monkey and human plasma is performed using HPLC-MS. For rat, incubations are carried out in 96-well polypropylene plates in 5 aliquots of 70 μL each (one for each time point). […] Five time points are analyzed (0, 15, 120, 480 and 1440 min). […] All incubations are performed in duplicates. The samples are analyzed by HPLC-MS. The percentage of parent compound remaining after incubation in plasma is determined.

[7] = Liver S9 fraction stability, monkey; format: in vitro ADME, cynomolgus monkey; details: monkey liver S9, 1.0 mg/ml S9 protein, 2 μM, 37° C.
Description: (§2) Liver S9 fraction stability determination of the test compounds in dog, cynomolgus monkey and human is performed using HPLC-MS. Test compound (2 μM, 0.1% DMSO, 1% Methanol final concentration) was assessed for stability in a 50 μl phosphate buffer containing 1.0 mg/ml S9 protein from each of the three species and 5 mM D-saccharic acid-1, 4-lactone. Samples were incubated at 37° C. for 60 minutes and the % compound remaining was assessed.

[8] = Liver S9 fraction stability, dog; format: in vitro ADME; details: dog liver S9, 1.0 mg/ml S9 protein, 2 μM, 37° C.
Description: as §2

[9] = Plasma stability assay, monkey plasma; format: in vitro ADME, cynomolgus monkey; details: 2 μM, 37° C.
Description: as §1

[10] = Liver S9 fraction stability, human; format: in vitro ADME; details: human liver S9, 1.0 mg/ml S9 protein, 2 μM, 37° C.
Description: as §2

[11] = Plasma stability assay, human plasma; format: in vitro ADME; details: 2 μM, 37° C.
Description: as §1

[12] = Rat pharmacokinetic studies, intramuscular; format: in vivo, male Sprague Dawley Rats; details: 0.80 mg/kg, saline
Description: The purpose of this study is to determine the pharmacokinetics of test compounds in plasma, following intramuscular administration to male Sprague Dawley Rats (n=3, unless otherwise specified).
The dose formulation of 400 mg base equivalents/ml in sesame oil+1% benzyl alcohol (unless otherwise specified) was administered by intramuscular injection. The dose volume was determined by the animals' body weight determined on the morning of dosing day.
Each collected blood sample was centrifuged for 4 minutes at 4° C. and 10000 rpm for plasma collection. Plasma was collected and transferred into a pre-labeled PP tube in dry ice at each time point and precipitated immediately using ACN at a ratio of 1:4 (plasma:ACN). Centrifuged again (10 minutes, 12000 rpm) and obtain the supernatant. After terminal collection, all supernatant was stored at approximately −80° C. until bioanalysis.
LC-MS/MS methods for the quantitative determination of test compound in biological matrix were developed. […] The sample analysis was performed concurrently with a set of calibration standards and two sets of QC samples using the LC-MS/MS method.
Plasma concentration versus time data was analyzed by non-compartmental approaches using the Phoenix WinNonlin 6.3 software program. Cmax, Tmax, T1/2, AUC(0-t), AUC(0-inf), MRT(0-t), MRT(0-inf) and graphs of plasma concentration versus time profile were prepared.

[13] = heating temp. 60 °C, obs. temp. 25 °C
[14] = heating temp. 60 °C, obs. temp. 40 °C
[15] = heating temp. 40 °C, obs. temp. 40 °C

T1 sequence (P41143 whole entry): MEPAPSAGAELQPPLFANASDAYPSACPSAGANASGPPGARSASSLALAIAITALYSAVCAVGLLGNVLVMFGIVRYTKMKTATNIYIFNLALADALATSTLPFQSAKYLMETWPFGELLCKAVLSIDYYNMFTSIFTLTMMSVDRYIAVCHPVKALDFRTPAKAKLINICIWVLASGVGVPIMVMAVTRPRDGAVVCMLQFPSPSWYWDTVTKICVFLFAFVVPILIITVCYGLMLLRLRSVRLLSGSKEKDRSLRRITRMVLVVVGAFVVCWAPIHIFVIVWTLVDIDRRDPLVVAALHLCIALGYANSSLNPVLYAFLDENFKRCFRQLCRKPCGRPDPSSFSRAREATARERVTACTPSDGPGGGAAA

Oc1ccc2c3c1O[C@H]1[C@H](O)CC[C@@]4(O)[C@@H](C2)N(CC2CC2)CC[C@]314 [6-β-naltrexol]
time of peak plasma levels after oral dosing [1]: within one hour
mean elimination half-life ([1]; oral dosing): thirteen

C=C1CC[C@@]2(O)C3Cc4ccc(OCOC(=O)CCCCCCCCCCCCC)c5c4[C@@]2(CCN3CC2CC2)[C@H]1O5 [Compound 45, (((4aS,7aS,12bS)-3-(cyclopropylmethyl)-4a-hydroxy-7-methylene-2,3,4,4a,5,6,7,7a-octahydro-1H-4,12-methanobenzofuro[3,2-e]isoquinolin-9-yl)oxy)methyl tetradecanoate]
Approximate Solubility (mg/mL) in Excipient: Cottonseed oil [13]: >402 mg/mL
Approximate Solubility (mg/mL) in Excipient: Sesame oil [13]: 267 to 288 mg/mL
Equilibrium solubility (mg/mL) Water (Water, heating temp. 40 °C, obs. temp. 40 °C): <0.001 mg/mL
% Inh@MaxDose [2]: 73.8%

C=C1CC[C@@]2(O)C3Cc4ccc(OC(=O)CCCCCCCCCCCCCCC)c5c4[C@@]2(CCN3CC2CC2)[C@H]1O5 [Compound 56, (4aS,7aS,12bS)-3-(cyclopropylmethyl)-4a-hydroxy-7-methylene-2,3,4,4a,5,6,7,7a-octahydro-1H-4,12-methanobenzofuro[3,2-e]isoquinolin-9-yl palmitate]
Approximate Solubility (mg/mL) in Excipient: Cottonseed oil [13]: <50 mg/mL
Approximate Solubility (mg/mL) in Excipient: Cottonseed oil [14]: 25 to 50 mg/mL
Approximate Solubility (mg/mL) in Excipient: Ethanol [14]: <40.4 mg/mL
Approximate Solubility (mg/mL) in Excipient: Sesame oil [13]: <50 mg/mL
Approximate Solubility (mg/mL) in Excipient: Sesame oil [14]: 25 to 50 mg/mL
melting point [3]: 48.95 °C
% remaining at time point ([4]; 0 min): 100%
% remaining at time point ([4]; 15 min): 73.1%
% remaining at time point ([4]; 120 min): 56.7%
% remaining at time point ([4]; 480 min): 35.8%
% remaining at time point ([4]; 1440 min): 16.8%

C=C1CC[C@@]2(O)C3Cc4ccc(OC(=O)OCCCCCCCCCCCCCCC)c5c4[C@@]2(CCN3CC2CC2)[C@H]1O5 [Compound 32, (4aS,7aS,12bS)-3-(cyclopropylmethyl)-4a-hydroxy-7-methylene-2,3,4,4a,5,6,7,7a-octahydro-1H-4,12-methanobenzofuro[3,2-e]isoquinolin-9-yl pentadecyl carbonate]
Approximate Solubility (mg/mL) in Excipient: Cottonseed oil [13]: >395.8 mg/mL
Approximate Solubility (mg/mL) in Excipient: Sesame oil [13]: >410 mg/mL
% Inh@MaxDose [2]: 43.2%

C=C1CC[C@@]2(O)C3Cc4ccc(OC(=O)NC(C)(C)C)c5c4[C@@]2(CCN3CC2CC2)[C@H]1O5 [Compound 40, (4aS,7aS,12bS)-3-(cyclopropylmethyl)-4a-hydroxy-7-methylene-2,3,4,4a,5,6,7,7a-octahydro-1H-4,12-methanobenzofuro[3,2-e]isoquinolin-9-yl tert-butylcarbamate]
Dry method and appearance ([5]; Acetone): Evaporation/white powder
XRPD results (Dried) ([5]; Acetone): Amorphous
Visual observation 50° C. ([5]; Acetone): Clear
Visual observation RT ([5]; Acetone): Slurry
Dry method and appearance ([5]; EtOAc): Evaporation/white powder
XRPD results (Dried) ([5]; EtOAc): Pattern A
Visual observation 50° C. ([5]; EtOAc): Clear
Visual observation RT ([5]; EtOAc): Slurry
Dry method and appearance ([5]; Heptane): Centrifugation/white powder
XRPD results (Dried) ([5]; Heptane): Pattern A
Visual observation 50° C. ([5]; Heptane): Slurry
Visual observation RT ([5]; Heptane): Slurry
Dry method and appearance ([5]; Isopropanol): Evaporation/oil
XRPD results (Dried) ([5]; Isopropanol): Amorphous
Visual observation 50° C. ([5]; Isopropanol): Clear
Visual observation RT ([5]; Isopropanol): Slurry
Dry method and appearance ([5]; MTBE): Evaporation/white powder
XRPD results (Dried) ([5]; MTBE): Amorphous
Visual observation 50° C. ([5]; MTBE): Clear
Visual observation RT ([5]; MTBE): Clear
melting point [3]: 107.6 °C

C=C1CC[C@@]2(O)C3Cc4ccc(OC(=O)OCCCCCCCCCCCC)c5c4[C@@]2(CCN3CC2CC2)[C@H]1O5 [Compound 6, (4aS,7aS,12bS)-3-(cyclopropylmethyl)-4a-hydroxy-7-methylene-2,3,4,4a,5,6,7,7a-octahydro-1H-4,12-methanobenzofuro[3,2-e]isoquinolin-9-yl dodecyl carbonate]
% remaining at time point ([6]; 0 min): 100%
% remaining at time point ([6]; 15 min (head)): 89.1%
% remaining at time point ([6]; 120 min (head)): 96.9%
% remaining at time point ([6]; 480 min (head)): 107.2%
% remaining at time point ([6]; 1440 min (head)): 101.2%
% remaining at 60 minutes [7]: 0%
Approximate Solubility (mg/mL) in Excipient: Cottonseed oil [13]: >397 mg/mL
Approximate Solubility (mg/mL) in Excipient: Ethanol [15]: 120 to 170 mg/mL
Approximate Solubility (mg/mL) in Excipient: Sesame oil [15]: >402.8 mg/mL
Approximate Solubility (mg/mL) in Excipient: Sesame oil [13]: >386 mg/mL
% remaining at 60 minutes [8]: 17.1%
% remaining at time point ([9]; 0 min): 100%
% remaining at time point ([9]; 15 min (head)): 88.7%
% remaining at time point ([9]; 120 min (head)): 74.3%
% remaining at time point ([9]; 480 min (head)): 68.4%
% remaining at time point ([9]; 1440 min (head)): 70.1%
% remaining at 60 minutes [10]: 5.3%
% Inh@MaxDose [2]: 70.9%
% remaining at time point ([11]; 0 min): 100%
% remaining at time point ([11]; 15 min (head)): 97.6%
% remaining at time point ([11]; 120 min (head)): 102%
% remaining at time point ([11]; 480 min (head)): 109.8%
% remaining at time point ([11]; 1440 min (head)): 115.1%
% remaining at time point ([4]; 0 min): 100%
% remaining at time point ([4]; 15 min): 31.3%
% remaining at time point ([4]; 120 min): 7.6%
% remaining at time point ([4]; 480 min): 4%
% remaining at time point ([4]; 1440 min): 1.6%

C=C1CC[C@@]2(O)C3Cc4ccc(O)c5c4[C@@]2(CCN3CC2CC2)[C@H]1O5.Cl [Nalmefene HCl-IR]
AUC0-inf (ng · h/mL) nalmefene [12]: 66.0 ng·h/mL
Terminal Half-life t1/2 (hour) nalmefene [12]: 0.87 h
